Assay results taken from patent publication US10370727B2, “Point mutations in TRK inhibitor-resistant cancer and methods relating to the same” (Loxo Oncology, Inc., priority 2015, dated 2019).
Structures can show the parent of a compound that is named as a salt.

Experiments:
[1] = test system: cells expressing a MPRIP-NTRK1 fusion protein including Trk inhibitor resistance mutations; assay: Proliferation (percent of control) of cells expressing mutant MPRIP-NTRK1 fusion; format: cell-based; conditions: TrkA substitutions V573M, F589L, G667S
Method: In the genetic screen cDNAs harboring the MPRIP-NTRK1 oncogene were introduced into Ba/F3 cells. The Ba/F3 cells were treated with the mutagen, 100 μg/mL N-ethyl-N-nitrosourea (ENU; Sigma Aldrich, St. Louis, Mo.), overnight. […] At confluence, the cells were collected and genomic DNA was extracted. The NTRK1 kinase region was amplified and the PCR products were purified and sequenced. A plasmids encoding MPRIP-NTRK1 mutations were generated with QuickChange site-directed mutagenesis according to the manufacturer's instructions using a sequence encoding a wildtype MPRIP-NTRK1 fusion protein as a template. Each mutation was confirmed by DNA sequencing. The Ba/F3 cells and NIH353 cells expressing MPRIP-NTRK1 mutants were generated by infecting Ba/F3 and NIH353 parental cells with lentivirus encoding the mutation MPRIP-NTRK1 fusion proteins, followed by selection with puromycin.

[2] = test system: cells expressing a TRIM24-NTRK2 fusion protein including TrkB inhibitor resistance mutations; assay: Proliferation (percent of control) of cells expressing mutant TRIM24-NTRK2 fusion; format: cell-based; conditions: Example 3; TrkB substitutions V601G, G623S, R630K
Method: N-ethyl-N-nitrosourea (ENU)-exposed Ba/F3-MPRIP-NTRK1 and Ba/F3-TRIM24-NTRK2 cells were used to generate mutations permitting growth of Ba/F3 cells in the absence of IL-3 despite the presence of 100, 250, or 500 nM (S)—N-(5-((R)-2-(2,5-difluorophenyl)pyrrolidin-1-yl)pyrazolo[1,5-a]pyrimidin-3-yl)-3-hydroxypyrrolidine-1-c[…]. The Mutations identified by genomic DNA sequencing in the initial screen were validated by cloning the mutation-bearing cDNAs back into Ba/F3 cells to evaluate their sensitivity to (S)—N-(5-((R)-2-(2,5-DIFLUOROPHENYL)PYRROLIDIN-1-YL)PYRAZOLO[1,5-A]PYRIMIDIN-3-YL)-3-HYDROXYPYRROLIDINE-1-C[…] using both proliferation assays and TRK phosphorylation by immunoblot analyses. Modeling of the mutations was performed by mapping of the amino acid substitutions onto a drug-bound TRK kinase domain crystal structure.
Ba/F3 cells stably expressing MPRIP-NTRK1 or TRIM24-NTRK2 were treated overnight with […] N-Ethyl-N-nitrosourea (ENU), pelleted, resuspended in fresh media, and distributed in 96-well plates in 200 μL media supplemented with (S)—N-(5-((R)-2-(2,5-DIFLUOROPHENYL)PYRROLIDIN-1-YL)PYRAZOLO[1,5-A]PYRIMIDIN-3-YL)-3-HYDROXYPYRROLIDINE-1-C[…] (100, 250, and 500 nM). […]

[3] = test system: TRKA and ERK1/2 activation in NIH3T3 cells expressing MPRIP-NTRK1 fusions; assay: Western blot analysis of NIH3T3 cells expressing MPRIP-NTRK1 fusions; format: cell-based; conditions: 2 hours
[4] = test system: TRKB and ERK1/2 activation in NIH3T3 cells expressing TRIM24-NTRK2 fusions; assay: Western blot analysis of NIH3T3 cells expressing TRIM24-NTRK2 fusions; format: cell-based; conditions: 2 hours
Method: FIG. 11 is a photograph of a Western blot analysis of NIH3T3 cells treated with the indicated concentrations of (S)—N-(5-((R)-2-(2,5-difluorophenyl)pyrrolidin-1-yl)pyrazolo[1,5-a]pyrimidin-3-yl)-3-hydroxypyrrolidine-1-c[…] (Cmpd A) for 2 hours.
Ba/F3 cells stably expressing MPRIP-NTRK1 or TRIM24-NTRK2 were treated overnight with […] N-Ethyl-N-nitrosourea (ENU), pelleted, resuspended in fresh media, and distributed in 96-well plates in 200 μL media supplemented with (S)—N-(5-((R)-2-(2,5-DIFLUOROPHENYL)PYRROLIDIN-1-YL)PYRAZOLO[1,5-A]PYRIMIDIN-3-YL)-3-HYDROXYPYRROLIDINE-1-C[…] (100, 250, and 500 nM). […] The contents of outgrown wells were expanded in 12-well plates in media supplemented with (S)—N-(5-((R)-2-(2,5-DIFLUOROPHENYL)PYRROLIDIN-1-YL)PYRAZOLO[1,5-A]PYRIMIDIN-3-YL)-3-HYDROXYPYRROLIDINE-1-C[…] at the same concentration as in the initial 96-well plate. At confluence, cells were collected and genomic DNA was extracted. The NTRK1 and NTRK2 kinase region was PCR-amplified and sequenced. Plasmids encoding MPRIP-NTRK1 and TRIM24-NTRK2 mutations were generated with QuickChange site-directed mutagenesis and confirmed by DNA sequencing. Ba/F3 cells and NIH3T3 cells expressing MPRIP-NTRK1 mutants were generated by infecting Ba/F3 and NIH3T3 parental cells with lentivirus encoding MPRIP-NTRK1 mutation followed by selection with puromycin.

TrkA WT = TrkA WT (Homo sapiens, UniProt P04629); assay: Trk enzyme assay ([33P] incorporation into poly-EAY); format: biochemical; conditions: wild-type TrkA enzyme; 22° C., 60 minutes
Method: (§1) The assays were conducted in 96-well polypropylene v-bottom microtitre plates (Corning, Costar® 3363) in a total volume of 50 μL. […] The radiolabeled product was then captured on glass fiber filter plates (PerkinElmer, Unifilter®-96, GF/B®) and washed with 5% phosphoric acid to remove unbound radiolabel using a Tomtec MACH III Harvester 96®. After adding 35 μL/well of Bio-Safe II™ liquid scintillation cocktail (Research Products International), the plates were counted in a TopCount NXT (PerkinElmer) using a counting time of 30 s/well. The activity at each concentration of compound was expressed as percent of control (POC) and plotted versus compound concentration.

TrkA V573M = TrkA V573M (Homo sapiens, UniProt P04629, V573M); assay: as above; format: biochemical; conditions: mutant TrkA V573M enzyme; 22° C., 60 minutes
Method: (§2) The activity of the various Trk compounds exemplified in Table 6 was determined by monitoring the incorporation of [^33P]PO4 from [γ-^33P]ATP into poly-EAY (Sigma-Aldrich, P3899).
as §1

TrkA F589L = TrkA F589L (Homo sapiens, UniProt P04629, F589L); assay: as above; format: biochemical; conditions: mutant TrkA F589L enzyme; 22° C., 60 minutes
Method: as §2, §1

TrkA G595R = TrkA G595R (Homo sapiens, UniProt P04629, G595R); assay: as above; format: biochemical; conditions: mutant TrkA G595R enzyme; 22° C., 60 minutes
Method: as §2, §1

TrkA G667C = TrkA G667C (Homo sapiens, UniProt P04629, G667C); assay: as above; format: biochemical; conditions: mutant TrkA G667C enzyme; 22° C., 60 minutes
Method: as §2, §1

TrkA G667S = TrkA G667S (Homo sapiens, UniProt P04629, G667S); assay: as above; format: biochemical; conditions: mutant TrkA G667S enzyme; 22° C., 60 minutes
Method: as §2, §1

TrkB WT = TrkB WT (Homo sapiens, UniProt Q16620); assay: as above; format: biochemical; conditions: wild-type TrkB enzyme; 22° C., 60 minutes
Method: as §1

TrkB G623R = TrkB G623R (Homo sapiens, UniProt Q16620, G623R); assay: as above; format: biochemical; conditions: mutant TrkB G623R enzyme; 22° C., 60 minutes
Method: as §1

TrkC WT = TrkC WT (Homo sapiens, UniProt Q16288, S70N); assay: as above; format: biochemical; conditions: wild-type TrkC enzyme; 22° C., 60 minutes
Method: as §1

TrkC G623R = TrkC G623R (Homo sapiens, UniProt Q16288, G623R/S70N); assay: as above; format: biochemical; conditions: mutant TrkC G623R enzyme; 22° C., 60 minutes
Method: The radiolabeled product was then captured on glass fiber filter plates (PerkinElmer, Unifilter®-96, GF/B®) and washed with 5% phosphoric acid to remove unbound radiolabel using a Tomtec MACH III Harvester 96®. After adding 35 μL/well of Bio-Safe II™ liquid scintillation cocktail (Research Products International), the plates were counted in a TopCount NXT (PerkinElmer) using a counting time of 30 s/well. The activity at each concentration of compound was expressed as percent of control (POC) and plotted versus compound concentration.

TrkC F617L = TrkC F617L (Homo sapiens, UniProt Q16288, F617L/S70N); assay: as above; format: biochemical; conditions: mutant TrkC F617L enzyme; 22° C., 60 minutes
Sequence of TrkC F617L (Q16288 32-839 S70N/F617L): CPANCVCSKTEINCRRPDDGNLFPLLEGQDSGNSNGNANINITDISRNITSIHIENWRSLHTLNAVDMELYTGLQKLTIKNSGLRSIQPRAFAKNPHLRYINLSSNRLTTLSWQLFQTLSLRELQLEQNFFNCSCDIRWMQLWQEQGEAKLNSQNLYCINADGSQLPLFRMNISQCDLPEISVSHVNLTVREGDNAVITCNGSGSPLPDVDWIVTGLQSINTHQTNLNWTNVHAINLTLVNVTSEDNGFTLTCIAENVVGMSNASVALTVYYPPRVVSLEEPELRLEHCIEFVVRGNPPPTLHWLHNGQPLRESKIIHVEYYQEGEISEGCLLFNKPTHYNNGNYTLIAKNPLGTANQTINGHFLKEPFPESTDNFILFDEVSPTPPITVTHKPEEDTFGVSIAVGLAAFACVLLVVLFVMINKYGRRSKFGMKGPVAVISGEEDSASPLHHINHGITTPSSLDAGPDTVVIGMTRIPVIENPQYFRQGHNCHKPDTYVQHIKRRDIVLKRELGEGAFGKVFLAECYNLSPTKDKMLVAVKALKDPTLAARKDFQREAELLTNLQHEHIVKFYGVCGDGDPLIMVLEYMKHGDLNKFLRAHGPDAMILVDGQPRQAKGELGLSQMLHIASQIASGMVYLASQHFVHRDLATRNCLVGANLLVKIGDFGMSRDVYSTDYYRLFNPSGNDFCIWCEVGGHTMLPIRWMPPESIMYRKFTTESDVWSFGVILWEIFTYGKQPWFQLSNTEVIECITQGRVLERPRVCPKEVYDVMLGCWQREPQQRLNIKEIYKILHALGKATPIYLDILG
Method: as §1

Sequence of TrkA G595R (P04629 33-796 G595R): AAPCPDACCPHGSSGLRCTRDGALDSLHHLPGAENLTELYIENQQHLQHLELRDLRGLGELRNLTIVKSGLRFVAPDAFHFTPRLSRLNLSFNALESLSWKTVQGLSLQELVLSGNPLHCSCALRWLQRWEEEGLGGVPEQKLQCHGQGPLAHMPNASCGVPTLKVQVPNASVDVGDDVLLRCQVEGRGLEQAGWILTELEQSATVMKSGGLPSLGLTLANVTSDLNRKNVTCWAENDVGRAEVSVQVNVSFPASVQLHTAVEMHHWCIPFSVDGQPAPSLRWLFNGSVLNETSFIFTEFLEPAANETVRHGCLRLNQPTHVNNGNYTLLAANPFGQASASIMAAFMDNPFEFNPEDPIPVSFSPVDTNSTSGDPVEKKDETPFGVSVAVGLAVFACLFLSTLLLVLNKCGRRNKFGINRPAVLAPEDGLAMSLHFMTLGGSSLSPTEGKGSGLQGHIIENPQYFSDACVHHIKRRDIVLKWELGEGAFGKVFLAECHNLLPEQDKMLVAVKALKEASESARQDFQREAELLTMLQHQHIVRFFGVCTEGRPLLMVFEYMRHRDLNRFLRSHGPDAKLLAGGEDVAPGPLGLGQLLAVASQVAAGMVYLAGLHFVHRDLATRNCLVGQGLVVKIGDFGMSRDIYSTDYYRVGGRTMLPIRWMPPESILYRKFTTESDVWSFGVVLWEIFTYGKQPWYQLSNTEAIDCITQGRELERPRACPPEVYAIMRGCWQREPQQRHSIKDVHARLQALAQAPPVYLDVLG
Sequence of TrkC WT (Q16288 32-839 S70N): as the sequence (Q16288 32-839 S70N/F617L) above, with L586F counted along it
Sequence of TrkA G667S (P04629 33-796 G667S): as the sequence (P04629 33-796 G595R) above, with R563G, G635S counted along it
Sequence of TrkA WT (P04629 33-796): as the sequence (P04629 33-796 G595R) above, with R563G counted along it
Sequence of TrkA G667C (P04629 33-796 G667C): as the sequence (P04629 33-796 G595R) above, with R563G, G635C counted along it
Sequence of TrkA V573M (P04629 33-796 V573M): as the sequence (P04629 33-796 G595R) above, with V541M, R563G counted along it
Sequence of TrkC G623R (Q16288 32-839 S70N/G623R): as the sequence (Q16288 32-839 S70N/F617L) above, with L586F, G592R counted along it
Sequence of TrkB G623R (Q16620 32-822 G623R): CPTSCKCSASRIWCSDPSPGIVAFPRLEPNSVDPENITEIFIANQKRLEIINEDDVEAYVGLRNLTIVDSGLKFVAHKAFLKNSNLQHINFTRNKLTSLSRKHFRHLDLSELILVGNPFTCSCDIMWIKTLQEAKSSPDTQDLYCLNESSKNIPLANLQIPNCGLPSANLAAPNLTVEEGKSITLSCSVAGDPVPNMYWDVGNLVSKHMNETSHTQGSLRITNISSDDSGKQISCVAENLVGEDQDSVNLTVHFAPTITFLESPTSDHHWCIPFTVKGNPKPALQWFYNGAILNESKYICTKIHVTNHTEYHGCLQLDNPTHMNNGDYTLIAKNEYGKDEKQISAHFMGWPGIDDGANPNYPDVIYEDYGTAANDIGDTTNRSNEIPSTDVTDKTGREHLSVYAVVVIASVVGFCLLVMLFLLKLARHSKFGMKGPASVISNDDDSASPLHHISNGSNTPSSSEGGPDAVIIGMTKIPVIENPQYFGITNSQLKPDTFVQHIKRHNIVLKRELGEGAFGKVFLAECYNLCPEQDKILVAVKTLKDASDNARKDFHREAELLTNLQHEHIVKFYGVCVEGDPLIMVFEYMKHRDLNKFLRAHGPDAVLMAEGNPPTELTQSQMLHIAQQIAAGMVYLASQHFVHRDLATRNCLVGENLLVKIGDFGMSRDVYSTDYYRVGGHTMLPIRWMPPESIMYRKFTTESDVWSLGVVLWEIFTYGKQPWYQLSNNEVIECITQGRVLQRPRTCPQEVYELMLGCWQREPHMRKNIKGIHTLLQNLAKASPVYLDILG
Sequence of TrkA F589L (P04629 33-796 F589L): as the sequence (P04629 33-796 G595R) above, with F557L, R563G counted along it
Sequence of TrkB WT (Q16620 32-822): as the sequence (Q16620 32-822 G623R) above, with R592G counted along it

Row | IC50 (TrkA WT) [nM] | IC50 (TrkA V573M) [nM] | IC50 (TrkA F589L) [nM] | IC50 (TrkA G595R) [nM] | IC50 (TrkA G667C) [nM] | IC50 (TrkA G667S) [nM] | IC50 (TrkB WT) [nM] | IC50 (TrkB G623R) [nM] | IC50 (TrkC WT) [nM] | IC50 (TrkC G623R) [nM] | IC50 (TrkC F617L) [nM] | SMILES | resistance of cancer cells having a MPRIP-NTRK1 point mutation (POC, FIG. 4) ([1]; Example 1, F600L, Y676S) | resistance of cancer cells having a MPRIP-NTRK1 point mutation (percent of control, FIG. 7) ([1]; Example 3) | resistance of cancer cells having a TRIM24-NTRK2 point mutation (percent of control, FIG. 10) [2] | TRKA and ERK1/2 activation, sensitivity to inhibition (FIG. 8) ([3]; NIH3T3 cells expressing MPRIP-NTRK1 V573M, F589L or G667S fusions) | TRKA and ERK1/2 activation, sensitivity to inhibition (FIG. 8) ([3]; NIH3T3 cells expressing MPRIP-NTRK1 WT fusion) | TRKB and ERK1/2 activation, sensitivity to inhibition (FIG. 11) ([4]; NIH3T3 cells expressing TRIM24-NTRK2 V601G, G623S or R630K fusions) | TRKB and ERK1/2 activation, sensitivity to inhibition (FIG. 11) ([4]; NIH3T3 cells expressing TRIM24-NTRK2 WT fusion)
1 |  |  |  |  |  |  |  |  |  |  |  | O=C(Nc1cnn2ccc(N3CCC[C@@H]3c3cc(F)ccc3F)nc12)N1CC[C@H](O)C1 [(S)—N-(5-((R)-2-(2,5-difluorophenyl)pyrrolidin-1-yl)pyrazolo[1,5-a]pyrimidin-3-yl)-3-hydroxypyrrolidine-1-carboxamide sulfate] | increased resistance | increased resistance | increased resistance | resistant | sensitive | resistant | sensitive
2 | 1 | < 5 | 1.1 | 3 | 1 | 0.5 | 8.7 | 2.3 | 4 | 4.7 | 8.1 | CC1(C)CNC(=O)c2cnn3ccc(nc23)N2CCC[C@@H]2c2cc(F)cnc2OC1 [Compound 25, (6R)-9-fluoro-15,15-dimethyl-13-oxa-2,11,17,21,22,25-hexaazapentacyclo [17,5.2.0^2,6.0^7,12.0^22,26]hexacosa-1(25),7,9,11,19(26),20,23-heptaen-18-one] |  |  |  |  |  |  | 
3 | < 0.5 | 12.1 | 14.8 | 1.5 | 9 | 2.8 | 4.4 | 1.5 | < 2.5 | 2.7 | 12.4 | CONC(=O)c1cnn2ccc(N3CCC[C@@H]3c3cc(F)cnc3OC)nc12 [Compound 14, (R)-5-(2-(5-fluoro-2-methoxypyridin-3-yl)pyrrolidin-1-yl)-N-methoxy-pyrazolo[1,5-a]pyrimidine-3-carboxamide] |  |  |  |  |  |  | 
4 | < 0.5 | 14.9 | 21 | 1 | 15.6 | 3.6 | 3.3 | 1.3 | < 2.5 | 1.6 | 9.9 | NC(=O)c1cnn2ccc(N3CCC[C@@H]3c3cc(F)ccc3F)nc12 [Compound 12, (R)-5-(2-(2,5-difluorophenyl)pyrrolidin-1-yl)pyrazolo[1,5-a]pyrimidine-3-carboxamide] |  |  |  |  |  |  | 
5 | 0.5 | 38.3 | 86.8 | 3.3 | 22.3 | 4.7 | 4.7 | 4.2 | < 2.5 | 4.5 | 61.9 | C[C@H]1CNC(=O)c2cnn3ccc(nc23)N2CCC[C@@H]2c2cc(F)cn(c2=O)C1 [Compound 24, (6R,13S)-9-fluoro-13-methyl-2,11,15, 19,20,23-hexaazapentacyclo [15.5.2.^17,11.0^2,6.0^20,24]pentacosa-1(23),7,9,17(24),18,21-hexaene-16,25-dione] |  |  |  |  |  |  | 
6 | 0.6 | 29.1 | 66.3 | 7.3 | 22.2 | 8.4 | 5.6 | 12.4 | < 2.5 | 7.8 | 48.5 | CC(=O)N1CCOc2ccc(F)cc2[C@H]2CCCN2c2ccn3ncc(c3n2)C1 [Compound 21, 1-[(6R)-9-fluoro-13-oxa-2,16,20,21,24-pentaazapentacyclo[16.5.2.0^2,6.0^7,12.0^21,25]pentacosa-1(24),7,9,11,18(25),19,22-heptaen-16-yl]ethan-1-one] |  |  |  |  |  |  | 
7 | 0.6 | < 5 | 3.9 | 2.1 | 1 | 0.5 | 3.3 | 1.8 | < 2.5 | 2.6 | 9.6 | O=C1NC[C@H](O)COc2ccc(F)cc2[C@H]2CC(F)(F)CN2c2ccn3ncc1c3n2 [Compound 26, (15S)-4,4,9-trifluoro-15-hydroxy-13-oxa-2,17,21,22.25-pentaazapentacyclo [17.5.2.0^2,6.0^7,12.0^22,26]hexacosa-1(25),7(12),8,10,19(26),20,23-heptaen-18-one] |  |  |  |  |  |  | 
8 | < 0.5 | 6.3 | 7.3 | 1.6 | 8.1 | 1.4 | < 2.5 | 1.6 | < 2.5 | 1.7 | < 5 | CC1(NC(=O)c2cnn3ccc(N4CCC[C@@H]4c4cncc(F)c4)nc23)CC1 [Compound 15, (R)-5-(2-(5-fluoropyridin-3-yl)pyrrolidin-1-yl)-N-(1-methylcyclopropyl)pyrazolo [1,5-a]pyrimidine-3-carboxamide] |  |  |  |  |  |  | 
9 | 0.7 | < 5 | < 1 | 1.6 | 0.8 | 0.3 | 6.1 | 1.1 | 2.7 | 2.1 | 5.8 | O=C1NCC(F)(F)COc2ncc(F)cc2[C@H]2CCCN2c2ccn3ncc1c3n2 [Compound 23, (6R)-9,15,15-trifluoro-13-oxa-2,11,17,21, 22,25-hexaazapentacyclo [17.5.2.0^2,6.0^7,12.0^22,26]hexacosa-1(25),7,9, 11,19(26),20,23-heptaen-18-one] |  |  |  |  |  |  | 
